{"source": "patent EP0314528B1", "about": "“Article for the controlled release and delivery of substances to animal tissues” (HERCON LABORATORIES CORPORATION, priority 1987, dated 1989)", "key": {"cyclooxygenase": {"system": "cyclooxygenase", "conditions": "cited from earlier work"}, "prostaglandin E2": {"system": "prostaglandin E2", "conditions": "cited from earlier work"}, "rat footpad": {"system": "rat footpad", "conditions": "applied topically to rat footpad; cited from earlier work"}, "leukotriene C4": {"system": "leukotriene C4", "conditions": "cited from earlier work"}, "guinea pig skin": {"system": "guinea pig skin", "conditions": "compared with indomethacin; cited from earlier work"}, "human subject [1]": {"system": "human subject", "experiment": "Contact irritant dermatitis to RO 22-1327 patches with incorporated fluocinonide", "type": "in vivo", "conditions": "1.0% fluocinonide incorporated into the RO 22-1327 patch", "excerpt": "(§1) The Grading System for this example is as follows: +/- faint, or spotty, pink color within test site; 1 uniform pink color covering all of test site; 2 uniform pink to red color covering all of test site; 3 uniform bright red color covering all of test site; 4 uniform bright red color covering all of test side with edema, blisters, or weeping.\nObjective - To block the contact irritant dermatitis observed following application of RO 22-1327 patches to the skin through the incorporation of fluocinonide in the patch. Materials - One formulation of the antihypertensive drug RO 22-1327 was used, in which either 0%, 0.1%. 1.0% or 5% fluocinonide was incorporated. Methods - Four patches containing RO 22-1327 and fluocinonide at either 0%, 0.1%, 1.0%. or 5.0% were applied to the upper arms (two per arm) of a single human subject not previously exposed to this drug. The patches were removed at 8 hours and the sites observed for signs of dermatitis immediately and 16 hours later. In a second test. one RO 22-1327 patch containing 1.0% fluocinonide was applied to the upper arm of the same human subject as above and removed after 24 hours. The site was examined immediately for signs of dermatitis."}, "[2]": {"system": "human subject previously sensitized to trifluoperazine", "experiment": "Contact allergic dermatitis to trifluoperazine patches with incorporated fluocinonide, sensitized subject", "type": "in vivo", "conditions": "2% fluocinonide incorporated in the trifluoperazine patch", "excerpt": "as §1\n(§2) Objective - To block the contact allergic dermatitis which occurs following application of trifluoperazine patches to the skin through the incorporation of fluocinonide in the patches. Materials - One formulation of the tranquilizer drug trifluoperazine was used in which either 0% or 2% fluocinonide was incorporated. Thus, the following formulations were prepared: […]\nMethods - Two patches containing trifluoperazine and either 0% or 2% fluocinonide were applied to the upper arm of a single human subject previously sensitized to trifluoperazine. The patches were removed after two days and the sites read immediately and 24 and 48 hours later as well. […]"}, "[3]": {"system": "human subject previously sensitized to fluphenazine", "experiment": "Contact allergic dermatitis to fluphenazine patches with incorporated fluocinonide, sensitized subject", "type": "in vivo", "conditions": "1% or 5% fluocinonide incorporated in the fluphenazine patch", "excerpt": "as §1\nObjective - To block contact dermatitis observed following application of fluphenazine patches to the skin through incorporation of fluocinonide in the patch. Materials - One formulation of the anti-psychotic drug fluphenazine was used in which either 0%, 1% or 5% fluocononide was incorporated. Thus, the following formulations were prepared: […]\nMethods - Three patches containing fluphenazine and fluocinonide at either 0%, 1% or 5% of fluocinonide were applied to the upper arm of a single human subject previously sensitized to fluphenazine. The patches were removed at 48 hours and the sites observed for signs of allergic dermatitis immediately and at 72 and 96 hours. […]"}, "[4]": {"system": "human subject previously sensitized to clonidine", "experiment": "Contact allergic dermatitis to clonidine patches with incorporated fluocinonide, sensitized subject", "type": "in vivo", "conditions": "2% fluocinonide incorporated in the clonidine patch", "excerpt": "as §1\nas §2, with “clonidine” for “trifluoperazine”, “through” for “through the”, “anti-hypertensive” for “tranquilizer”, “incorporated. A second formulation containing no clonidine was also tested.” for “incorporated.”\nMethods - Two patches containing clonidine and either 0% or 2% fluocinonide were applied to the upper back of a single human subject previously sensitized to clonidine. A third patch containing no clonidine and no fluocinonide was also applied as a placebo. The patches were removed after 7 days and the sites read immediately and on the 8th day as well. […]"}, "human subject [5]": {"system": "human subject", "experiment": "Contact irritant dermatitis to guanfacine patches with incorporated hydrocortisone", "type": "in vivo", "conditions": "23 hour and 1 week observation", "excerpt": "as §1\nObjective - To block the contact irritant dermatitis observed following application of guanfacine patches to the skin through the incorporation of hydrocortisone in the patch. Materials - Two formulations of the antihypertensive drug guanfacine were used in this study. Into each was incorporated hydrocortisone at either 0.5% or 2.0%. Control patches containing no hydrocortisone were also used. Thus, the following formulations were prepared: […]\n(To make the 0.5% hydrocortisone formulations, 20 mg hydrocortisone was added to 4 grams of the above formulations. To make 2.0% hydrocortisone formulations, 80 mg of hydrocortisone was added to 4 grams of the above two formulations). Methods - Three patches of each of the two guanfacine formulations, containing either 0%, 0.5% or 2.0% hydrocortisone, were applied to the upper arm of a single human subject not previously exposed to this drug. The patches were removed after 23 hours and the sites observed for signs of dermatitis. One week later, the sites were again observed."}}, "data": [{"compound": "COc1cc(-c2nc3ncccc3o2)cc(C(C)(C)C)c1", "note": "[2-(3-(1,1-dimethylethyl)5-methoxyphenyl-oxazolo(4,5-b)pyridine]", "values": [{"measurement": "cyclooxygenase inhibition", "setting": "cyclooxygenase", "result": "inhibitor"}, {"measurement": "inhibition of prostaglandin E2 synthesis", "setting": "prostaglandin E2", "result": "inhibitor"}, {"measurement": "analgesic effect", "setting": "rat footpad", "result": "effective analgesic"}, {"measurement": "inhibition of leukotriene C4 synthesis", "setting": "leukotriene C4", "result": "not"}, {"measurement": "inhibiting ultra-violet light-induced erythema", "setting": "guinea pig skin", "result": "as potent as indomethacin"}]}, {"compound": "CC(=O)OCC(=O)[C@@]12OC(C)(C)O[C@@H]1C[C@H]1[C@@H]3C[C@H](F)C4=CC(=O)C=C[C@]4(C)[C@@]3(F)[C@@H](O)C[C@@]12C", "note": "[fluocinonide]", "values": [{"measurement": "irritant dermatitis associated with the use of RO 22-1327", "setting": "human subject [1]", "result": "significant reduction"}, {"measurement": "magnitude of the allergic reaction (erythema and blistering) caused by trifluoperazine", "setting": "[2]", "result": "significantly reduced"}, {"measurement": "allergic reaction (erythema and blistering) caused by fluphenazine", "setting": "[3]", "result": "almost completely blocked"}, {"measurement": "allergic reaction (erythema and blistering) caused by clonidine", "setting": "[4]", "result": "significantly reduced"}]}, {"compound": "C[C@]12CCC(=O)C=C1CC[C@@H]1[C@@H]2[C@@H](O)C[C@@]2(C)[C@H]1CC[C@]2(O)C(=O)CO", "note": "[hydrocortisone]", "values": [{"measurement": "adverse reactions (irritant dermatitis)", "setting": "human subject [5]; 0.5% hydrocortisone guanfacine patches", "result": "variable"}, {"measurement": "adverse reactions (irritant dermatitis)", "setting": "human subject [5]; 2.0% hydrocortisone guanfacine patches", "result": "No adverse reactions"}]}]}
